Measured values reported in publication PMC7753147, “High-throughput determination of protein affinities using unmodified peptide libraries in nanomolar scale” (iScience, 2020).

Legend:
native geph = experiment: µSPOT peptide microarray binding assay with native geph from mouse brain lysate
gephE = experiment: µSPOT peptide microarray binding assay with recombinant gephE
FL-geph = experiment: µSPOT peptide microarray binding assay with full-length geph
[1] = µSPOT peptide microarray, GlyRβ full positional scan, native geph from mouse brain lysate, intensity normalised to wild-type sequence DLRSNDFSIVGSLPR (=1)
[2] = µSPOT peptide microarray, GlyRβ full positional scan, recombinant gephE, intensity normalised to wild-type sequence DLRSNDFSIVGSLPR (=1)
[3] = µSPOT peptide microarray, GlyRβ full positional scan, intensity normalised to wild-type sequence DLRSNDFSIVGSLPR (=1)
[4] = µSPOT full positional scan of GlyRβ 15-mer DLRSNDFSIVGSLPR, native geph, intensity normalised to wild-type sequence (= 1)
[5] = µSPOT full positional scan of GlyRβ 15-mer DLRSNDFSIVGSLPR, intensity normalised to wild-type sequence (= 1)

| Sequence | Native geph Binding Intensity [norm.] (native geph; [1]) | gephE Binding Intensity [norm.] (gephE; [2]) | Fl-geph Binding Intensity [norm.] (FL-geph; [3]) | Native geph Binding Intensity [norm.] (native geph; [4]) | gephE Binding Intensity [norm.] (gephE; [5]) | Fl-geph Binding Intensity [norm.] (FL-geph; [5]) |
| --- | --- | --- | --- | --- | --- | --- |
| DLRSNDFSIVFSLPR [GlyRβ_Full_Positional_Scan_207, GlyR β 414-428 variant G424F] | 0.22 norm. | 0.43 norm. | 0.54 norm. |  |  |  |
| DLRSQDFSIVGSLPR [GlyRβ_Full_Positional_Scan_100] | 0.97 norm. | 0.96 norm. | 1.01 norm. |  |  |  |
| DLRSNDFSIVGSFPR [GlyRβ_Full_Positional_Scan_247] |  |  |  | 0.96 norm. | 0.9 norm. | 1.16 norm. |
| DLRSNDFSYVGSLPR [GlyRβ_Full_Positional_Scan_169, GlyR β 414-428 variant I422Y] | 0.48 norm. | 0.69 norm. | 0.84 norm. |  |  |  |
| DLPSNDFSIVGSLPR [GlyRβ_Full_Positional_Scan_045] | 1.5 norm. | 0.93 norm. | 1.47 norm. |  |  |  |
| DLRSNDFSIVGFLPR [GlyRβ_Full_Positional_Scan_227] |  |  |  | 0.37 norm. | 0.64 norm. | 0.88 norm. |
| DLRHNDFSIVGSLPR [GlyRβ_Full_Positional_Scan_073] | 0.86 norm. | 0.92 norm. | 0.84 norm. |  |  |  |
| DLRSNDFSIVGSLPC [GlyRβ_Full_Positional_Scan_297] |  |  |  | 0.97 norm. | 0.83 norm. | 1.04 norm. |
| DLRSNDFSIVGSLPF [GlyRβ_Full_Positional_Scan_287] |  |  |  | 0.79 norm. | 1.01 norm. | 0.64 norm. |
| DYRSNDFSIVGSLPR [GlyRβ_Full_Positional_Scan_029] | 0.73 norm. | 0.95 norm. | 0.84 norm. |  |  |  |
| DLRSMDFSIVGSLPR [GlyRβ_Full_Positional_Scan_098] | 0.91 norm. | 0.92 norm. | 0.85 norm. |  |  |  |
| DLRSNDISIVGSLPR [GlyRβ_Full_Positional_Scan_123, GlyR β 414-428 variant F420I] | 0.46 norm. | 0.57 norm. | 0.66 norm. |  |  |  |
| DQRSNDFSIVGSLPR [GlyRβ_Full_Positional_Scan_040] | 1.16 norm. | 0.96 norm. | 0.92 norm. |  |  |  |
| GLRSNDFSIVGSLPR [GlyRβ_Full_Positional_Scan_002] | 0.75 norm. | 1.01 norm. | 1.03 norm. |  |  |  |
| DLRSNDFSIVGSLPP [GlyRβ_Full_Positional_Scan_285] |  |  |  | 1.08 norm. | 1.02 norm. | 1.03 norm. |
| DLRSNSFSIVGSLPR [GlyRβ_Full_Positional_Scan_115] | 0.75 norm. | 0.89 norm. | 0.92 norm. |  |  |  |
| DLRSNDFSIVGSLGR [GlyRβ_Full_Positional_Scan_262] |  |  |  | 0.44 norm. | 0.6 norm. | 0.82 norm. |
| DLRSNDFRIVGSLPR [GlyRβ_Full_Positional_Scan_152, GlyR β 414-428 variant S421R] | 0.23 norm. | 0.8 norm. | 0.92 norm. |  |  |  |
| DLRSNDFSHVGSLPR [GlyRβ_Full_Positional_Scan_173, GlyR β 414-428 variant I422H] | 0.21 norm. | 0.41 norm. | 0.55 norm. |  |  |  |

| Sequence | Native geph Binding Intensity [norm.] (native geph; [1]) | gephE Binding Intensity [norm.] (gephE; [2]) | Fl-geph Binding Intensity [norm.] (FL-geph; [3]) | Native geph Binding Intensity [norm.] (native geph; [4]) | gephE Binding Intensity [norm.] (gephE; [5]) | Fl-geph Binding Intensity [norm.] (FL-geph; [5]) |
| --- | --- | --- | --- | --- | --- | --- |
| DLRSNDFSIVGILPR [GlyRβ_Full_Positional_Scan_223] |  |  |  | 0.45 norm. | 0.62 norm. | 1.05 norm. |
| DLKSNDFSIVGSLPR [GlyRβ_Full_Positional_Scan_054] | 1.21 norm. | 1.01 norm. | 1.24 norm. |  |  |  |
| DLRSFDFSIVGSLPR [GlyRβ_Full_Positional_Scan_087] | 0.55 norm. | 0.9 norm. | 0.75 norm. |  |  |  |
| DLRSNVFSIVGSLPR [GlyRβ_Full_Positional_Scan_106] | 0.58 norm. | 0.81 norm. | 0.95 norm. |  |  |  |
| DLRSNDFSIVGSLPH [GlyRβ_Full_Positional_Scan_293] |  |  |  | 0.92 norm. | 0.96 norm. | 1.05 norm. |
| DLRSNDFSIVGELPR [GlyRβ_Full_Positional_Scan_231] |  |  |  | 0.49 norm. | 0.64 norm. | 0.84 norm. |
| DLESNDFSIVGSLPR [GlyRβ_Full_Positional_Scan_051] | 1.3 norm. | 1.03 norm. | 1.39 norm. |  |  |  |
| DLDSNDFSIVGSLPR [GlyRβ_Full_Positional_Scan_050] | 1.45 norm. | 1.09 norm. | 1.38 norm. |  |  |  |
| DLRSNDFSIVGWLPR [GlyRβ_Full_Positional_Scan_228] |  |  |  | 0.19 norm. | 0.57 norm. | 0.67 norm. |
| DLRVNDFSIVGSLPR [GlyRβ_Full_Positional_Scan_066] | 0.98 norm. | 0.91 norm. | 0.9 norm. |  |  |  |
| DLRSNDFSIVGTLPR [GlyRβ_Full_Positional_Scan_236] |  |  |  | 1.05 norm. | 0.94 norm. | 0.98 norm. |
| DLRSNDFSIVGDLPR [GlyRβ_Full_Positional_Scan_230] |  |  |  | 0.45 norm. | 0.52 norm. | 0.77 norm. |
| DLRSKDFSIVGSLPR [GlyRβ_Full_Positional_Scan_094] | 0.66 norm. | 0.92 norm. | 0.79 norm. |  |  |  |
| DLCSNDFSIVGSLPR [GlyRβ_Full_Positional_Scan_057] | 1.41 norm. | 0.88 norm. | 1.14 norm. |  |  |  |
| CLRSNDFSIVGSLPR [GlyRβ_Full_Positional_Scan_017] | 0.99 norm. | 1.12 norm. | 0.88 norm. |  |  |  |
| DLRSNDFSIVGSLRR [GlyRβ_Full_Positional_Scan_272] |  |  |  | 0.25 norm. | 0.59 norm. | 0.93 norm. |
| DLRSNDQSIVGSLPR [GlyRβ_Full_Positional_Scan_140, GlyR β 414-428 variant F420Q] | 0.43 norm. | 0.48 norm. | 0.66 norm. |  |  |  |
| DLRSCDFSIVGSLPR [GlyRβ_Full_Positional_Scan_097] | 0.83 norm. | 0.99 norm. | 0.76 norm. |  |  |  |
